Assay [1] relates to high endothelial venules (HEV) of peripheral lymph nodes (PLN). In words: Adhesion under shear of human PBL to PLN HEV in frozen sections from hormone-treated ovariectomized mice. The assay is classed as in vivo, mouse. The note with it: for L-selectin-dependent and α4 integrin-dependent lymphocyte adhesion to endothelium of secondary lymphoid tissues, compared to pregnancy: hormone-treated Ovx mice versus pregnant mice, shear flow. From the text: (§1) C57BI/6J (Jackson Laboratory, Bar Harbor, Me.) and Balb/c (Taconic, Germantown, N.Y.) mice, aged 7–8 wk were studied. Some females were used for timed matings with the morning of the copulation plug designated gd 0. Other females (n=34) were surgically ovariectomized under Avertin anaesthesia (24). Females were rested 6 days and then received daily subcutaneous injections of either hormone dissolved in sesame oil or sesame oil alone between 9.00–11.00 a.m. as indicated in FIG. 2.^81-84 Some of the Ovx hormone-treated mice also had 10 μl sterile sesame oil injected into a uterine horn to induce decidualization 48 h prior to euthanasia. Ovx mice were euthanized 24 hours after receiving their last injection and vaginal smears were collected and stained with Wright-Giemsa to confirm treatment success. Non-pregnant (NP) controls were virgin females who had never been paired with males. All procedures were performed under appropriate animal utilization protocols. The following samples were collected from each mouse and embedded in OCT (Miles Laboratories) for cryosectioning: i) a pool of 10–12 PLN from subcutaneous and intermuscular sites; ii) a pool of 10–12 intestinal PP; iii) the entire pancreas; and iv) the uterus. For some experiments, the median iliac lymph nodes that drain the pelvic organs, including the uterus, were also dissected. Non-decidualized uteri were trimmed at the ovarian and cervical ends, then incised longitudinally along one side on an axis midway between the mesometrial and anti-mesometrial aspects. The mesometrium (the mesentery suspending the uterus, also known as the broad ligament) was not removed and served as a positional landmark during analyses. For embedding, samples were oriented to produce full thickness longitudinal sections that included both antimesometrial and mesometrial sides. Uteri from gd 3 were flushed for blastocysts to confirm pregnancy. The cell suspensions evaluated for adhesive interactions with endothelium were human peripheral blood lymphocytes (PBL) isolated from random (female and male) normal donor buffy coat leukocyte concentrates (American Red Cross, Rochester, N.Y.);^85,68 and TK-1 cells (an alpha integrin^high, L-selectin^low mouse T lymphoma cell line).^85 In selected experiments, human PBL were cultured 6 hr at 37° C. or 40° C. before being applied to tissue sections, as previously described^12. In all assays, some cell aliquots were incubated with function blocking mAb specific for human L-selectin (DREG-56, American Type Cell Collection [ATCC], Manassas, Va., 10 μg/ml) or human alpha4 integrin (HP2/1, Coulter Immunology, Hialeah, Fla., 10 μg/ml). To identify adherent human NK cells, PBL aliquots were pre-labeled with anti-CD56 mAb (NKG1, Coulter Immunology, diluted 1:100) followed by rabbit anti-mouse Ig-rhodamine isothiocynate (RITC) Ab as described previously (10;29). Control aliquots were treated with the secondary reagent alone. […] Following removal of non adherent cells, glutaraldehyde-fixed specimens were stained with 0.5% toluidine blue and adhesion was scored on 300–500 HEV/PLN or PP specimen or equivalent numbers of small vessels in pancreatic tissue. When CD56-pre-labeled cells were used, fluorescent cells were quantified in 10 high power fields (HPF; one HPF=5 mm^2) at 200× magnification using an Olympus BH2/RFL fluorescence microscope (Olympus Optical, Tokyo, Japan) (10;29). […]

The subject of a further assay is pancreas endothelium. In words: Adhesion of PBL or TK-1 cells to pancreas endothelium from hormone-treated ovariectomized mice. The format is in vivo, mouse. Conditions: tissue from hormone-treated Ovx mice. From the text:
C57BI/6J (Jackson Laboratory, Bar Harbor, Me.) and Balb/c (Taconic, Germantown, N.Y.) mice, aged 7–8 wk were studied. Some females were used for timed matings with the morning of the copulation plug designated gd 0. Other females (n=34) were surgically ovariectomized under Avertin anaesthesia (24). Females were rested 6 days and then received daily subcutaneous injections of either hormone dissolved in sesame oil or sesame oil alone between 9.00–11.00 a.m. as indicated in FIG. 2.^81-84 Some of the Ovx hormone-treated mice also had 10 μl sterile sesame oil injected into a uterine horn to induce decidualization 48 h prior to euthanasia. […]
The cell suspensions evaluated for adhesive interactions with endothelium were human peripheral blood lymphocytes (PBL) isolated from random (female and male) normal donor buffy coat leukocyte concentrates (American Red Cross, Rochester, N.Y.);^85,68 and TK-1 cells (an alpha integrin^high, L-selectin^low mouse T lymphoma cell line).^85 In selected experiments, human PBL were cultured 6 hr at 37° C. or 40° C. before being applied to tissue sections, as previously described^12. […] Following removal of non adherent cells, glutaraldehyde-fixed specimens were stained with 0.5% toluidine blue and adhesion was scored on 300–500 HEV/PLN or PP specimen or equivalent numbers of small vessels in pancreatic tissue. […]

A further assay relates to uterine tissue. In words: Adhesion of CD56-labeled human PBL to uterine tissue from hormone-treated ovariectomized mice. The assay is classed as in vivo, mouse. The note with it: for adhesion of CD56bright human lymphocytes to uterine tissue: uteri from Ovx mice treated with hormone, versus placebo-treated Ovx or virgin.
Text: as §1, with “Uteri from gd 3 were flushed for blastocysts to confirm pregnancy.” left out, “described^12.” for “described^12. In all assays, some cell aliquots were incubated with function blocking mAb specific for human L-selectin (DREG-56, American Type Cell Collection [ATCC], Manassas, Va., 10 μg/ml) or human alpha4 integrin (HP2/1, Coulter Immunology, Hialeah, Fla., 10 μg/ml). To identify adherent human NK cells, PBL aliquots were pre-labeled with anti-CD56 mAb (NKG1, Coulter Immunology, diluted 1:100) followed by rabbit anti-mouse Ig-rhodamine isothiocynate (RITC) Ab as described previously (10;29). Control aliquots were treated with the secondary reagent alone.”

Assay [2] relates to high endothelial venules (HEV) of Peyer's Patches (PP). In words: Adhesion under shear of TK-1 cells to Peyer's Patch HEV from hormone-treated ovariectomized mice. The format is in vivo, mouse. Conditions: tissue from Ovx mice treated with hormone, versus placebo or virgin controls. From the text: C57BI/6J (Jackson Laboratory, Bar Harbor, Me.) and Balb/c (Taconic, Germantown, N.Y.) mice, aged 7–8 wk were studied. Some females were used for timed matings with the morning of the copulation plug designated gd 0. Other females (n=34) were surgically ovariectomized under Avertin anaesthesia (24). Females were rested 6 days and then received daily subcutaneous injections of either hormone dissolved in sesame oil or sesame oil alone between 9.00–11.00 a.m. as indicated in FIG. 2.^81-84 Some of the Ovx hormone-treated mice also had 10 μl sterile sesame oil injected into a uterine horn to induce decidualization 48 h prior to euthanasia. […] The cell suspensions evaluated for adhesive interactions with endothelium were human peripheral blood lymphocytes (PBL) isolated from random (female and male) normal donor buffy coat leukocyte concentrates (American Red Cross, Rochester, N.Y.);^85,68 and TK-1 cells (an alpha integrin^high, L-selectin^low mouse T lymphoma cell line).^85 In selected experiments, human PBL were cultured 6 hr at 37° C. or 40° C. before being applied to tissue sections, as previously described^12. […] Following removal of non adherent cells, glutaraldehyde-fixed specimens were stained with 0.5% toluidine blue and adhesion was scored on 300–500 HEV/PLN or PP specimen or equivalent numbers of small vessels in pancreatic tissue. […]

In a further assay the test system is human lymphocytes. In words: Effect of blood collection anti-coagulant on adhesion of human lymphocytes to LN from pregnant mice. The assay is classed as cell-based. The note with it: blood collected into the anti-coagulant. Here is the method: Male and female subjects of legal age and in good health were recruited to donate up to 30 ml of blood, using venipuncture into evacuated, sterile blood collection tubes. All subjects were informed about the risks of participation in this study and signed approved informed consent forms. The blood was layered onto an equal volume of Histopaque 1.077 (Sigma) and centrifuged at 400×g for 30 min at RT according to manufacturers instructions. The cells at the interface were collected, washed thrice and counted.
The effects of anti-coagulants on adhesive properties of isolated PBL were assessed. Ten ml of blood was collected by venipuncture (40 ml collected per subject) into sterile evacuated tubes containing either Acid Citrate Dextrose (ACD), EDTA, Sodium Citrate, or heparin. Lymphocytes were isolated as described above and applied to sections of LN from pregnant mice. The sections were assessed for lymphocyte adhesion by microscopy.

Assay [3] concerns uterine artery and decidua. Conditions: alymphoid mice, daily 100–1000 IU/6 days; cited from earlier work.

In the case of `C[C@]12CC[C@@H]3c4ccc(O)cc4CC[C@H]3[C@@H]1CC[C@@H]2O` [E2, 17-beta estradiol], the “L-selectin-dependent and α4 integrin-dependent lymphocyte adhesion to endothelium of secondary lymphoid tissues, compared to pregnancy” value in assay [1] was “fully mimicked the functional gains in adhesion promoted by pregnancy”; in assay [1] (listed as estrogen), “equivalent to pregnancy”. Besides, the “adhesion of PBL or TK1 cells to pancreas” value in the assay on pancreas endothelium is reported as “no effect”; in the assay on pancreas endothelium (listed as estrogen) it was “no increase”. The “adhesion of CD56bright human lymphocytes to uterine tissue” value with uterine tissue is “equivalent functional changes”. Moreover, the “percentage of CD56bright cells among lymphocytes adhering to uterine tissue (enrichment)” value with uterine tissue (uterine tissue from mouse receiving hormone therapy, starting preparation 2–3% CD56bright) was determined as 70%.

`CC(=O)[C@H]1CC[C@H]2[C@@H]3CCC4=CC(=O)CC[C@]4(C)[C@H]3CC[C@]12C` [P4, progesterone]: the “L-selectin-dependent and α4 integrin-dependent lymphocyte adhesion to endothelium of secondary lymphoid tissues, compared to pregnancy” value in assay [1] is on record as “fully mimicked the functional gains in adhesion promoted by pregnancy”; in assay [1] (listed as progesterone), “equivalent to pregnancy”. The “L-selectin-dependent adhesion of human PBL to PLN HEV” value in assay [1] (tissue from Ovx mice treated with hormone, versus placebo (oil) or virgin controls) is listed as “enhanced L-selectin-dependent binding”. In assay [2], the “alpha4 integrin/MAdCAM-1-dependent TK-1 cell adhesion to PP HEV” value was “enhanced, progesterone-dependent, and α4 integrin-dependent, binding”. The entries for the “adhesion of CD56bright human lymphocytes to uterine tissue” value in the assay with uterine tissue and in the assay with uterine tissue (listed as progesterone) were “equivalent functional changes” and “promoted”, respectively.

In the case of `O=C([O-])CC(O)(CC(=O)[O-])C(=O)[O-].[Na+].[Na+].[Na+]` [sodium citrate], the “adhesion of isolated human lymphocytes to LN from pregnant mice” value in the assay on human lymphocytes is “did not interfere with adhesion”.

On to Tumor necrosis factor-alpha, for which the “uterine artery modification and decidua” value in assay [3] is reported as “lacked these effects”.

B1: recombinant mulFN-γ: recombinant murine interferon-gamma (protein, UniProt P01580 23-155, looked up)
Interferon gamma: HGTVIESLESLNNYFNSSGIDVEEKSLFLDIWRNWQKDGDMKILQSQIISFYLRLFEVLKDNQAISNNISVIESHLITTFFSNSKAKKDAFMSIAKFEVNNPQVQRQAFNELIRVVHQLLPESSLRKRKRSRC
Consider B1, for which the “uterine artery modification and decidua” value in assay [3] was “promoted full uterine artery modification and normalized deciduas”.

The values above are taken from US7094561B2, “Method of monitoring the menstrual cycle and/or pregnancy in a female” (University of Guelph, priority 2000, dated 2006).
